Laboratory results from paper PMC3940921 (Oncogenesis, 2014).
Where two headings read alike, the source gives them in different places.

Columns and labels:
[1] = test system: STAT5 or PI3K signaling pathways; assay: Western blot of STAT5 and PI3K signaling after carfilzomib; format: cell-based; conditions: carfilzomib at IC50 doses, 1 h pulse, fresh medium 24 h
ABI 1/2 = assay: Western blot of ABI 1/2 levels after carfilzomib; format: cell-based; conditions: carfilzomib at IC50 levels; cell lines and primary CD34+38- enriched cells
CML cell lines = assay: Cell viability of CML cell lines; format: cell-based; conditions: read-out: IC50, viability
CML CD34+38- cells = assay: Viability of CML CD34+38- cells; format: cell-based, human; conditions: 50 nM for 1 h, then drug-free medium 24 h
NBM CD34+38- cells = assay: Viability of normal bone marrow CD34+38- cells; format: cell-based, human; conditions: 50 nM for 1 h, then drug-free medium 24 h
CML CD34+ cells = assay: LTC-IC assay, CML CD34+ cells; format: cell-based, human; conditions: pulsed 1 h with 50 nM
normal CD34+ cells (NBM) = assay: LTC-IC assay, normal CD34+ cells; format: cell-based, human; conditions: pulsed 1 h with 50 nM
[2] = test system: caspase-3 activity in CML cell lines and primary samples; assay: Caspase-3 activity; format: cell-based; conditions: pulse treatment 1 h at IC50 doses
K562 cells = assay: Proliferation of K562 cells with or without IFN-γ; format: cell-based; conditions: Homo sapiens
[3] = test system: A549 lung carcinoma cell line; assay: Proliferation of A549 cells with or without IFN-γ; format: cell-based; conditions: Homo sapiens
KCL22S cells = assay: Proliferation of KCL22S cells with or without LMP7 siRNA; format: cell-based; conditions: Homo sapiens, 24 h, read-out: IC50, proliferation, control KCL22S, continuous exposure for 24 h
LAMA84S cells = assay: Proliferation of LAMA84S cells with or without LMP7 siRNA; format: cell-based; conditions: Homo sapiens, 24 h, read-out: IC50, proliferation, control LAMA84S, continuous exposure for 24 h
[4] = test system: LMP7 expression in K562 cells; assay: Induction of LMP7 expression by IFN-γ in K562 cells; format: cell-based; conditions: 100 U/ml IFN-γ for 72 h
[5] = test system: LMP7 expression in A549 cells; assay: Induction of LMP7 expression by IFN-γ in A549 cells; format: cell-based; conditions: 100 U/ml IFN-γ for 72 h

Row | IC50 (K562 cells; K562, 24 h, read-out: IC50, proliferation) | IC50 (K562 cells; K562, read-out: IC50, proliferation) | IC50 ([3]; A549, 24 h, read-out: IC50, proliferation) | IC50 ([3]; A549, read-out: IC50, proliferation) | Molecule | effect on STAT5 or PI3K signaling pathways [1] | increased expression of ABI 1/2 (ABI 1/2) | IC50 (CML cell lines) | viability reduced by (CML CD34+38- cells) | viability reduced by (NBM CD34+38- cells) | colony formation reduced by (CML CD34+ cells) | colony formation reduced by (normal CD34+ cells (NBM)) | caspase-3 activity [2] | IC50 (KCL22S cells) | IC50 (LAMA84S cells) | increase in the expression of LMP7 [4] | increase in the expression of LMP7 [5]
1 | 608 nM | 179 nM | 92 nM | 10 nM | CC(C)C[C@H](NC(=O)[C@H](CCc1ccccc1)NC(=O)CN1CCOCC1)C(=O)N[C@@H](Cc1ccccc1)C(=O)N[C@@H](CC(C)C)C(=O)[C@@]1(C)CO1 [carfilzomib] | no effect | 2.2–6.8 fold | 20 to 79 nM | 39±1% | 19±2% | 58±11% | 44±7% | increase in caspase-3 activity | 5 nM | 7 nM |  | 
2 |  |  |  |  | IFN-γ: interferon-γ, used at 100 U/ml for 72 h to induce immunoproteasome expression (protein, UniProt P01579 24-161, looked up) Interferon gamma: QDPYVKEAENLKKYFNAGHSDVADNGTLFLGILKNWKEESDRKIMQSQIVSFYFKLFKNFKDDQSIQKSVETIKEDMNVKFFNSNKKKRDDFEKLTNYSVTDLNVQRKAIHELIQVMAELSPAAKTGKRKRSQMLFRG |  |  |  |  |  |  |  |  |  |  | fourfold | 10 fold
